# What was measured:
# [1] = tested on: human non small cell lung cancer (NSCLC) cell line H460; test: H460 xenograft model, satraplatin and docetaxel
# [2] = tested on: human H460 non small cell lung cancer (NSCLC) cell line; test: H460 xenograft model, satraplatin and paclitaxel
# A129 = test: SRB cytotoxicity assay, parental A129 cell line; assay type: cell-based; settings: 48 hours, mean and standard deviation
# A129 cp80 = test: SRB cytotoxicity assay, cisplatin-resistant A129 cp80 cell line; assay type: cell-based
# Protocol: The parental non-mutated cell line A129 was used as control.
# Briefly, cells were plated in 96 well dishes 24 hours prior to compound addition. The assay was terminated with the addition of cold TCA to a final concentration of 10% and the plates were incubated for one hour at 4° C. The plates were then washed 5 times with water and 100 μl of a Sulforhodamine B solution ([…]) was added to each well. The plate was then incubated for 10 minutes at room temperature before removal of unbound dye by washing with 1% acetic acid. The bound dye was solubilized with 10 mM Trizma base and the absorbance read at OD570.
# [3] = satraplatin 35 mg/kg/day po, Exp. B
# [4] = satraplatin 40 mg/kg/day po, Exp. B
# [5] = satraplatin 50 mg/kg/day po, Exp. A
# [6] = paclitaxel 25 mg/kg/day iv, Exp. A
# [7] = paclitaxel 25 mg/kg/day iv, Exp. B
# [8] = paclitaxel 40 mg/kg/day iv, Exp. A
# [9] = paclitaxel 40 mg/kg/day iv, Exp. B
# [10] = docetaxel 25 mg/kg iv d7, d14, of 10 animals
compound,measurement,setting,value
"CC(=O)[O][Pt]([NH2])([Cl])([Cl])([NH]C1CCCCC1)[O]C(C)=O [Satraplatin, satraplatin]",Max % BW loss,"[1]; satraplatin 25 mg/kg po d8-12, d15-19",6.1%
same,Toxic Deaths,"[1]; satraplatin 25 mg/kg po d8-12, d15-19, of 10 animals",0
same,Max % BW loss,"[1]; satraplatin 35 mg/kg po d8-12, d15-19",9.7%
same,Toxic Deaths,"[1]; satraplatin 35 mg/kg po d8-12, d15-19, of 10 animals",1
same,Max % BW loss,[2]; [3],12%
same,Toxic deaths/total,[2]; [3],0/10
same,Max % BW loss,[2]; [4],16%
same,Toxic deaths/total,[2]; [4],4/10
same,Max % BW loss,[2]; [5],26%
same,Toxic deaths/total,[2]; [5],9/10
"N.N.[Cl][Pt][Cl] [Cisplatin, cisplatin]",IC50,A129,0.23 µM
same,IC50,"A129 cp80; 48 hours, SRB assay, mean and standard deviation",15.1 µM
same,RR (relative resistance),A129 cp80; A129 cp80 versus A129,80 +/− 25
"CC(=O)O[C@H]1C(=O)[C@@]2(C)[C@H]([C@H](OC(=O)c3ccccc3)[C@]3(O)C[C@H](OC(=O)[C@H](O)[C@@H](NC(=O)c4ccccc4)c4ccccc4)C(C)=C1C3(C)C)[C@]1(OC(C)=O)CO[C@@H]1C[C@@H]2O [Paclitaxel, paclitaxel]",LCK,[2]; [6],0.6
same,Max TGI %,[2]; [6],56%
same,Toxic deaths/total,[2]; [6],0/10
same,LCK,[2]; [7],0.7
same,Max TGI %,[2]; [7],47%
same,Toxic deaths/total,[2]; [7],0/10
same,LCK,[2]; [8],0.7
same,Max TGI %,[2]; [8],64%
same,Toxic deaths/total,[2]; [8],0/10
same,LCK,[2]; [9],1.0
same,Max TGI %,[2]; [9],59%
same,Toxic deaths/total,[2]; [9],0/10
same,"tumor growth delay equivalent, LCK","[2]; paclitaxel 40 mg/kg/day, in two experiments",0.7-1.0 LCK
same,tolerability and activity as single agent,"[2]; paclitaxel at both doses tested, 25 and 40 mg/kg/day",tolerated and active
"CC(=O)O[C@@]12CO[C@@H]1C[C@H](O)[C@@]1(C)C(=O)[C@H](O)C3=C(C)[C@@H](OC(=O)[C@H](O)[C@@H](NC(=O)OC(C)(C)C)c4ccccc4)C[C@@](O)([C@@H](OC(=O)c4ccccc4)[C@H]21)C3(C)C [Docetaxel, N-debenzoyl-N-tert-butoxycarbonyl-10-deacetyl paclitaxel]",LCK (Td = 2.7),"[1]; docetaxel 25 mg/kg iv d7, d14",0.76
same,Max TGI (d),"[1]; docetaxel 25 mg/kg iv d7, d14, maximum observed on day 13",64.7 (13) %
same,CR (number of animals with complete tumor regression),[1]; [10],0
same,Cure,[1]; [10],0
same,PR (number of animals with partial tumor regression),[1]; [10],0
same,Toxic Deaths,[1]; [10],0
